From patent US20080132555A1, “PREPARATION AND UTILITY OF SUBSTITUTED PHENYLTETRAZOLES” (AUSPEX PHARMACEUTICALS, INC., priority 2006, published 2008)

conditions: cited from earlier work

| Structure (SMILES) | lowering of the rate of new-onset Diabetes Mellitus relative to the β-blocker atenolol [%] |
| --- | --- |
| CCCCc1nc(Cl)c(CO)n1Cc1ccc(-c2ccccc2-c2nn[nH]n2)cc1 [losartan, Losartan] | 25 |

conditions: 5 microgram per mL
Procedure: Liver microsomal stability assays were conducted at 1 mg per mL liver microsome protein with an NADPH-generating system in 2% NaHCO3 (2.2 mM NADPH, 25.6 mM glucose 6-phosphate, 6 units per mL glucose 6-phosphate dehydrogenase and 3.3 mM MgCl2). Test compounds were prepared as solutions in 20% acetonitrile-water and added to the assay mixture (final assay concentration 5 microgram per mL) and incubated at 37° C. Final concentration of acetonitrile in the assay were <1%. Aliquots (50 μL) were taken out at times 0, 15, 30, 45, and 60 minutes, and diluted with ice cold acetonitrile (200 μL) to stop the reactions. Samples were centrifuged at 12000 RPM for 10 minutes to precipitate proteins. Supernatants were transferred to microcentrifuge tubes and stored for LC/MS/MS analysis of the degradation half-life of the test compounds.

| increase in the degradation half-life as compared to the non-isotopically enriched drug (losartan) | Structure (SMILES) |
| --- | --- |
| 30-180% | [2H]C([2H])(O)c1c(Cl)nc(CCCC)n1Cc1ccc(-c2ccccc2-c2nn[nH]n2)cc1 [Example 1, d2-{2-Butyl-5-chloro-3-[2′-(2H-tetrazol-5-yl)-biphenyl-4-ylmethyl]-3H-imidazol-4-yl}-methanol] |
| 30-180% | [2H]C(c1nc(Cl)c(CO)n1Cc1ccc(-c2ccccc2-c2nn[nH]n2)cc1)C([2H])([2H])C([2H])([2H])C([2H])([2H])[2H] (stereo not shown) [Example 2, d8-{2-Butyl-5-chloro-3-[2′-(2H-tetrazol-5-yl)-biphenyl-4-ylmethyl]-3H-imidazol-4-yl}-methanol] |
| 30-180% | [2H]C(O)c1c(Cl)nc(C([2H])C([2H])([2H])C([2H])([2H])C([2H])([2H])[2H])n1Cc1ccc(-c2ccccc2-c2nn[nH]n2)cc1 (stereo not shown) [Example 3, d9-{2-Butyl-5-chloro-3-[2′-(2H-tetrazol-5-yl)-biphenyl-4-ylmethyl]-3H-imidazol-4-yl}-methanol] |
| 30-180% | [2H]C(c1nc(Cl)c(C([2H])([2H])O)n1Cc1ccc(-c2ccccc2-c2nn[nH]n2)cc1)C([2H])([2H])C([2H])([2H])C([2H])([2H])[2H] (stereo not shown) [Example 4, d10-{2-Butyl-5-chloro-3-[2′-(2H-tetrazol-5-yl)-biphenyl-4-ylmethyl]-3H-imidazol-4-yl}-methanol] |
| 30-180% | [2H]C(O)c1c(Cl)nc(C([2H])([2H])CCC)n1Cc1ccc(-c2ccccc2-c2nn[nH]n2)cc1 (stereo not shown) [Example 5, d3-{2-Butyl-5-chloro-3-[2′-(2H-tetrazol-5-yl)-biphenyl-4-ylmethyl]-3H-imidazol-4-yl}-methanol] |
| 30-180% | [2H]C([2H])(O)c1c(Cl)nc(C([2H])([2H])CCC)n1Cc1ccc(-c2ccccc2-c2nn[nH]n2)cc1 [Example 6, d4-{2-Butyl-5-chloro-3-[2′-(2H-tetrazol-5-yl)-biphenyl-4-ylmethyl]-3H-imidazol-4-yl}-methanol] |
